Activity calls are given as the source filed them. The calls are words filed in the database; no cut-off is given here.

Results on two compounds are retold here after ChEMBL document CHEMBL4477257, “In vitro cytotoxicity of novel 2,5,7-tricarbo-substituted indoles derived from 2-amino-5-bromo-3-iodoacetophenone” (2016).

Assay [1] deals with MCF7. The assay can be described thus: Cytotoxicity against human MCF7 cells assessed as cell viability at 1 uM after 2 days by MTT assay relative to control. The class given is functional. The settings on record: MCF7, 48 h, read-out: Activity. (In general: Tetrazolium dyes change colour on reduction, which living cells bring about.)
The test system of assay [2] is HeLa. The experiment in a line: Induction of apoptosis in human HeLa cells assessed as early apoptotic cells at 3 uM after 48 hrs by Annexin V/propidium iodide staining based flow cytometric analysis (reference value: 0.05 +/- 0.07 %). The class given is functional. On the technique in general: Flow cytometry measures light scatter and fluorescence of single cells or particles in a stream.

Assay [3] concerns MCF7. The assay can be described thus: Cytotoxicity against human MCF7 cells assessed as cell viability at 2 uM after 2 days by MTT assay relative to control. In kind it is functional. Particulars: MCF7, 48 h, read-out: Activity.
Assay [4] relates to MCF7. The experiment in a line: Cytotoxicity against human MCF7 cells assessed as reduction in cell viability after 2 days by MTT assay. The class given is functional. Particulars: MCF7, 48 h, read-out: LC50 (the source's name).
The subject of assay [5] is HeLa. The assay can be described thus: Cytotoxicity against human HeLa cells assessed as cell viability at 20 uM after 2 days by MTT assay relative to control. Particulars: 48 h, read-out: Activity. In kind it is functional.
Assay [6] relates to MCF7. The experiment in a line: Cytotoxicity against human MCF7 cells assessed as cell viability at 5 uM after 2 days by MTT assay relative to control. Particulars: MCF7, 48 h, read-out: Activity. The class given is functional.
The subject of assay [7] is HeLa. The assay can be described thus: Induction of apoptosis in human HeLa cells assessed as late apoptotic cells at 3 uM after 48 hrs by Annexin V/propidium iodide staining based flow cytometric analysis (reference value: 31.80 +/- 0.25 %). The class given is functional.
The subject of assay [8] is MCF7. The experiment in a line: Cytotoxicity against human MCF7 cells assessed as cell viability at 0.5 uM after 2 days by MTT assay relative to control. In kind it is functional. Particulars: MCF7, 48 h, read-out: Activity.
Assay [9] concerns HeLa. The assay can be described thus: Cytotoxicity against human HeLa cells assessed as cell viability at 2 uM after 2 days by MTT assay relative to control. The class given is functional. The settings on record: 48 h, read-out: Activity.
The test system of assay [10] is MCF7. The experiment in a line: Cytotoxicity against human MCF7 cells assessed as cell viability at 10 uM after 2 days by MTT assay relative to control. The settings on record: MCF7, 48 h, read-out: Activity. The class given is functional.
Assay [11] relates to HeLa. The experiment in a line: Cytotoxicity against human HeLa cells assessed as cell viability at 1 uM after 2 days by MTT assay relative to control. The class given is functional. Particulars: 48 h, read-out: Activity.
The subject of assay [12] is HeLa. The experiment in a line: Induction of apoptosis in human HeLa cells assessed as caspase 3 activation at 0.75 to 3 uM after 24 hrs by colorimetric analysis. The class given is functional, cell-based.
Assay [13] deals with HeLa. The experiment in a line: Cytotoxicity against human HeLa cells assessed as cell viability at 10 uM after 2 days by MTT assay relative to control. The class given is functional. The settings on record: 48 h, read-out: Activity.
Assay [14] deals with HeLa. The assay can be described thus: Induction of apoptosis in human HeLa cells assessed as necrotic cells at 3 uM after 48 hrs by Annexin V/propidium iodide staining based flow cytometric analysis (reference value: 21.45 +/- 0.78 %). The class given is functional.
For assay [15], the system named is HeLa. The assay can be described thus: Cytotoxicity against human HeLa cells assessed as cell viability at 5 uM after 2 days by MTT assay relative to control. The class given is functional. The settings on record: 48 h, read-out: Activity.
In assay [16] the test system is HeLa. The experiment in a line: Induction of apoptosis in human HeLa cells assessed as viable cells at 3 uM after 48 hrs by Annexin V/propidium iodide staining based flow cytometric analysis (reference value: 46.00 +/- 0.56 %). The class given is functional. Particulars: read-out: Activity.
Assay [17] has as its system HeLa. The assay can be described thus: Cytotoxicity against human HeLa cells assessed as cell viability at 0.5 uM after 2 days by MTT assay relative to control. The class given is functional. Particulars: 48 h, read-out: Activity.
The test system of assay [18] is HeLa. The assay can be described thus: Cytotoxicity against human HeLa cells assessed as reduction in cell viability after 2 days by MTT assay. In kind it is functional. The settings on record: 48 h, read-out: LC50 (the source's name).
Assay [19] concerns MCF7. The assay can be described thus: Cytotoxicity against human MCF7 cells assessed as cell viability at 20 uM after 2 days by MTT assay relative to control. The class given is functional. The settings on record: MCF7, 48 h, read-out: Activity.
In assay [20] the test system is HeLa. The experiment in a line: Induction of apoptosis in human HeLa cells assessed as necrotic cells at 5 uM after 48 hrs by Annexin V/propidium iodide staining based flow cytometric analysis (reference value: 21.45 +/- 0.78 %). The class given is functional.
In assay [21] the test system is HeLa. The experiment in a line: Induction of apoptosis in human HeLa cells assessed as early apoptotic cells at 10 uM after 48 hrs by Annexin V/propidium iodide staining based flow cytometric analysis (reference value: 0.05 +/- 0.07 %). In kind it is functional.
Assay [22] relates to HeLa. The experiment in a line: Cytotoxicity against human HeLa cells assessed as cell viability at 100 uM after 2 days by MTT assay relative to control. In kind it is functional. Particulars: 48 h, read-out: Activity.
The subject of assay [23] is HeLa. The assay can be described thus: Induction of apoptosis in human HeLa cells assessed as late apoptotic cells at 10 uM after 48 hrs by Annexin V/propidium iodide staining based flow cytometric analysis (reference value: 31.80 +/- 0.25 %). The class given is functional.
In assay [24] the test system is HeLa. The experiment in a line: Induction of apoptosis in human HeLa cells assessed as caspase 3 activation at 2.5 to 10 uM after 24 hrs by colorimetric analysis. The class given is functional.
In assay [25] the test system is HeLa. The assay can be described thus: Induction of apoptosis in human HeLa cells assessed as early apoptotic cells at 2.5 uM after 48 hrs by Annexin V/propidium iodide staining based flow cytometric analysis (reference value: 0.05 +/- 0.07 %). The class given is functional.
Assay [26] concerns HeLa. The assay can be described thus: Induction of apoptosis in human HeLa cells after 48 hrs by Annexin V/propidium iodide staining based flow cytometric analysis. The class given is functional, cell-based.
The subject of assay [27] is HeLa. The assay can be described thus: Induction of apoptosis in human HeLa cells assessed as necrotic cells at 2.5 uM after 48 hrs by Annexin V/propidium iodide staining based flow cytometric analysis (reference value: 21.45 +/- 0.78 %). In kind it is functional.
The subject of assay [28] is HeLa. The assay can be described thus: Induction of apoptosis in human HeLa cells assessed as late apoptotic cells at 5 uM after 48 hrs by Annexin V/propidium iodide staining based flow cytometric analysis (reference value: 31.80 +/- 0.25 %). The class given is functional.
The test system of assay [29] is HeLa. The experiment in a line: Induction of apoptosis in human HeLa cells assessed as late apoptotic cells at 2.5 uM after 48 hrs by Annexin V/propidium iodide staining based flow cytometric analysis (reference value: 31.80 +/- 0.25 %). In kind it is functional.
Assay [30] deals with HeLa. The assay can be described thus: Cytotoxicity against human HeLa cells assessed as cell viability at 0.1 uM after 2 days by MTT assay relative to control. In kind it is functional. Particulars: 48 h, read-out: Activity.
Assay [31] concerns MCF7. The assay can be described thus: Cytotoxicity against human MCF7 cells assessed as cell viability at 0.1 uM after 2 days by MTT assay relative to control. In kind it is functional. The settings on record: MCF7, 48 h, read-out: Activity.
The test system of assay [32] is HeLa. The assay can be described thus: Induction of apoptosis in human HeLa cells assessed as DNA fragmentation at 2.5 to 10 uM after 48 hrs by ethidium bromide staining based agarose gel electrophoresis. The class given is functional, cell-based.
Assay [33] deals with HeLa. The assay can be described thus: Induction of apoptosis in human HeLa cells assessed as early apoptotic cells at 5 uM after 48 hrs by Annexin V/propidium iodide staining based flow cytometric analysis (reference value: 0.05 +/- 0.07 %). In kind it is functional.
Assay [34] has as its system MCF7. The experiment in a line: Cytotoxicity against human MCF7 cells assessed as cell viability at 100 uM after 2 days by MTT assay relative to control. The class given is functional. Particulars: MCF7, 48 h, read-out: Activity.
Assay [35] has as its system HeLa. The experiment in a line: Induction of apoptosis in human HeLa cells assessed as necrotic cells at 10 uM after 48 hrs by Annexin V/propidium iodide staining based flow cytometric analysis (reference value: 21.45 +/- 0.78 %). In kind it is functional.
For assay [36], the system named is HeLa. The assay can be described thus: Induction of apoptosis in human HeLa cells assessed as viable cells at 5 uM after 48 hrs by Annexin V/propidium iodide staining based flow cytometric analysis (reference value: 46.00 +/- 0.56 %). In kind it is functional. The settings on record: read-out: Activity.
The subject of assay [37] is HeLa. The assay can be described thus: Induction of apoptosis in human HeLa cells assessed as viable cells at 10 uM after 48 hrs by Annexin V/propidium iodide staining based flow cytometric analysis (reference value: 46.00 +/- 0.56 %). In kind it is functional. The settings on record: read-out: Activity.
The subject of assay [38] is HeLa. The assay can be described thus: Induction of apoptosis in human HeLa cells assessed as viable cells at 2.5 uM after 48 hrs by Annexin V/propidium iodide staining based flow cytometric analysis (reference value: 46.00 +/- 0.56 %). The class given is functional. Particulars: read-out: Activity.

`COc1cccc2c1C(=O)c1c(O)c3c(c(O)c1C2=O)C[C@@](O)(C(=O)CO)C[C@@H]3O[C@H]1C[C@H](N)[C@H](O)[C@H](C)O1.Cl` [DOXORUBICIN HYDROCHLORIDE]: the viability at 1 µM in assay [1] was 44%; in assay [11] it was 46%. The Activity in assay [2] is recorded as 0.95%; in [7], 58.5%; in assay [14], 40.4%. In addition, the figures for the viability at 2 µM in [3] and in assay [9] were 38.4% and 39.2%, respectively. The CC50 in [4] amounted to 1.07 µM; in assay [18], 0.78 µM. For the same compound, the viability at 20 µM in [5] is 3.41%; in assay [19], 24%. Moreover, the viability at 5 µM in assay [6] was 34%; in [15], 8.53%. Besides, the viability at 0.5 µM worked out at 66.4% in assay [8] and 62.8% in [17]. Also, the results for the viability at 10 µM in [10] and in [13] were 27.5% and 4.43%, respectively. Besides, in assay [12], the result was Active. Further, the viability at 3 µM in assay [16] worked out at 1.55%.
For the compound `COc1ccc(-c2cc(C(C)=O)c3[nH]c(-c4ccc(OC)cc4)cc3c2)cc1`, the Activity is 42.65% in [20]; 0.15% in [21]; 47.75% in assay [23]; 0.1% in assay [25]; “Dose-dependent effect” in [26]; 23.2% in [27]. The Activity in [28] is listed as 37.55%; in assay [29] it was 12.9%; in assay [33], 0.15%; in assay [35], 47.4%. The viability at 1 µM in [1] was determined as 62.6%; in assay [11], 60.2%. For the same compound, the figures for the CC50 in assay [4] and in assay [18] were 25.2 µM and 7.13 µM, respectively. In addition, the viability at 100 µM was found to be 20.2% in [22] and 39.9% in [34]. In addition, the “fold change (FC)” value in assay [24] was determined as 4. The viability at 10 µM in [10] came to 56.4%; in assay [13], 37.1%; in assay [37], 3.7%. The viability at 0.1 µM in assay [30] was 74.5%; in assay [31], 96.5%. Moreover, the outcome in assay [32] was Active. The viability at 5 µM in assay [36] came out at 20.4%. Further, the viability at 2.5 µM in [38] was 65.2%.
